ChEMBL document CHEMBL1201862, “PubChem BioAssay data set” (2004)
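Results reflect a 48-hour exposure of cells in 96-well plates to compound at five concentrations. Here, GI50 denotes the concentration required for 50% inhibition of growth.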 The source made the active and inactive calls. No stated cut-off is given here; in the data, active = GI50 up to about 1.1 µM and inactive = higher.

What was measured:
Assay in all cases: NCI anticancer screen, dose series, 48 h
[1] = system: A498
[2] = system: OVCAR-4
[3] = system: OVCAR-8
[4] = system: DU-145
[5] = system: M14
[6] = system: SNB-19
[7] = system: IGROV-1
[8] = system: HT-29
[9] = system: SN12C
[10] = system: SW-620
[11] = system: NCI/ADR-RES
[12] = system: SNB-75
[13] = system: CAKI-1
[14] = system: UO-31
[15] = system: SF-295
[16] = system: ACHN
[17] = system: MDA-MB-231
[18] = system: RXF 393
[19] = system: SK-MEL-28
[20] = system: SK-MEL-5
[21] = system: COLO 205
[22] = system: PC-3
[23] = system: HOP-92
[24] = system: HCT-15
[25] = system: OVCAR-5
[26] = system: EKVX
[27] = system: A549
[28] = system: MDA-MB-435
[29] = system: OVCAR-3
[30] = system: KM12
[31] = system: MDA-N
[32] = system: NCI-H23
[33] = system: TK-10
[34] = system: SF-268
[35] = system: U-251
[36] = system: HCT-116
[37] = system: K562
[38] = system: SF-539
[39] = system: CCRF-CEM
[40] = system: Hs-578T
[41] = system: RPMI-8226
[42] = system: NCI-H522
[43] = system: LOX IMVI
[44] = system: UACC-257
[45] = system: SR
[46] = system: NCI-H226
[47] = system: HL-60
[48] = system: MOLT-4
[49] = system: HOP-62
[50] = system: UACC-62
[51] = system: MCF7
[52] = system: SK-MEL-2
[53] = system: SK-OV-3
[54] = system: NCI-H460
[55] = system: HCC 2998
[56] = system: 786-0
[57] = system: T47D
[58] = system: Malme-3M

In the case of `C[N+]12CCN(c3ccccc31)c1ccccc12.[O-][Cl+3]([O-])([O-])[O-]`, the GI50 [1] is reported as > 10 µM (inactive), the GI50 [2] is reported as > 10 µM (inactive) and the GI50 [3] is reported as 7.16 µM (inactive). For the same molecule, the GI50 [4] was > 10 µM (inactive), the GI50 [5] was > 10 µM (inactive) and the GI50 [6] was > 10 µM (inactive). For the same molecule, the GI50 [7] was > 10 µM (inactive), the GI50 [8] was > 10 µM (inactive) and the GI50 [9] was 7.28 µM (inactive). The GI50 [10] was > 10 µM (inactive), the GI50 [11] was > 10 µM (inactive) and the GI50 [12] was 6.28 µM (inactive). For the same molecule, the GI50 [13] was > 10 µM (inactive), the GI50 [14] was > 10 µM (inactive) and the GI50 [15] was 7.46 µM (inactive). For the same molecule, the GI50 [16] was > 10 µM (inactive), the GI50 [17] was > 10 µM (inactive) and the GI50 [18] was > 10 µM (inactive). The GI50 [19] was > 10 µM (inactive), the GI50 [20] was 2.29 µM (inactive) and the GI50 [21] was 7.73 µM (inactive). For the same molecule, the GI50 [22] was > 10 µM (inactive), the GI50 [23] was > 10 µM (inactive) and the GI50 [24] was over 10 µM. For the same molecule, the GI50 [25] was > 10 µM (inactive), the GI50 [26] was 6.15 µM (inactive) and the GI50 [27] was 4.91 µM (inactive). The GI50 [28] was > 10 µM (inactive), the GI50 [29] was 3.44 µM (inactive) and the GI50 [30] was > 10 µM (inactive). For the same molecule, the GI50 [31] was 2.79 µM (inactive), the GI50 [32] was 4.95 µM (inactive) and the GI50 [33] was > 10 µM (inactive). The GI50 [34] was 4.79 µM (inactive) and the GI50 [35] was 6.01 µM (inactive).
`CCn1ncc(N=O)c1N` was tested, and the GI50 [5] was > 100 µM (inactive), the GI50 [6] was > 100 µM (inactive) and the GI50 [7] was > 100 µM (inactive). The GI50 [36] was > 100 µM (inactive), the GI50 [37] was > 100 µM (inactive) and the GI50 [38] was > 100 µM (inactive). The GI50 [21] was > 100 µM (inactive), the GI50 [39] was > 100 µM (inactive) and the GI50 [40] was > 100 µM (inactive). For the same molecule, the GI50 [27] was > 100 µM (inactive), the GI50 [41] was > 100 µM (inactive) and the GI50 [30] was > 100 µM (inactive). For the same molecule, the GI50 [31] was > 100 µM (inactive), the GI50 [32] was > 100 µM (inactive) and the GI50 [34] was > 100 µM (inactive). For the same molecule, the GI50 [42] was > 100 µM (inactive).
With `O=C(CSc1nc2ccc(I)cc2c(=O)n1Cc1ccccc1)NN1C(=O)CSC1c1ccccc1` (stereo not drawn) the GI50 [2] was 25.8 µM (inactive), the GI50 [3] was 32.7 µM (inactive) and the GI50 [43] was 19.5 µM (inactive). The GI50 [4] was 26.4 µM (inactive), the GI50 [5] was 29.5 µM (inactive) and the GI50 [6] was 40.7 µM (inactive). For the same molecule, the GI50 [44] was 20.4 µM (inactive), the GI50 [45] was 26.5 µM (inactive) and the GI50 [46] was 26.9 µM (inactive). The GI50 [7] was 22.6 µM (inactive), the GI50 [47] was 4.68 µM (inactive) and the GI50 [8] was 35 µM (inactive). For the same molecule, the GI50 [9] was 23 µM (inactive), the GI50 [10] was 38 µM (inactive) and the GI50 [11] was 26.5 µM (inactive). The GI50 [12] was 34.2 µM (inactive), the GI50 [36] was 24 µM (inactive) and the GI50 [48] was 29.2 µM (inactive). The GI50 [13] was 3.13 µM (inactive), the GI50 [49] was 18.6 µM (inactive) and the GI50 [15] was 27.1 µM (inactive). For the same molecule, the GI50 [50] was 19.3 µM (inactive), the GI50 [16] was 18.2 µM (inactive) and the GI50 [51] was 19.2 µM (inactive). The GI50 [52] was 24.3 µM (inactive), the GI50 [17] was 26.9 µM (inactive) and the GI50 [53] was 24.1 µM (inactive). For the same molecule, the GI50 [18] was 25.8 µM (inactive), the GI50 [37] was 26.5 µM (inactive) and the GI50 [19] was 30.2 µM (inactive). The GI50 [20] was 18.5 µM (inactive), the GI50 [38] was 27.9 µM (inactive) and the GI50 [21] was 15.3 µM (inactive). For the same molecule, the GI50 [22] was 32.2 µM (inactive), the GI50 [23] was 19.4 µM (inactive) and the GI50 [39] was 29.2 µM (inactive). For the same molecule, the GI50 [24] was 14.1 µM, the GI50 [25] was 53.8 µM (inactive) and the GI50 [54] was 18 µM (inactive). The GI50 [55] was 21.5 µM (inactive), the GI50 [56] was 38.3 µM (inactive) and the GI50 [26] was 29.2 µM (inactive). The GI50 [27] was 35.2 µM (inactive), the GI50 [28] was 27.2 µM (inactive) and the GI50 [41] was 31.2 µM (inactive). For the same molecule, the GI50 [29] was 16.1 µM (inactive), the GI50 [30] was 22.5 µM (inactive) and the GI50 [31] was 35.7 µM (inactive). The GI50 [32] was 18.3 µM (inactive), the GI50 [33] was 27.4 µM (inactive) and the GI50 [34] was 28.8 µM (inactive). The GI50 [42] was 15.6 µM (inactive), the GI50 [57] was 28.1 µM (inactive) and the GI50 [35] was 29.6 µM (inactive).
With `Cc1cc(/N=C/c2c(CO)cnc(C)c2O)c(/N=C/c2c(CO)cnc(C)c2O)cc1C` the GI50 [4] was > 100 µM (inactive), the GI50 [44] was > 100 µM (inactive) and the GI50 [9] was > 100 µM (inactive). For the same molecule, the GI50 [10] was > 100 µM (inactive), the GI50 [58] was > 100 µM (inactive) and the GI50 [51] was 75.9 µM (inactive). The GI50 [53] was > 100 µM (inactive), the GI50 [18] was > 100 µM (inactive) and the GI50 [37] was > 100 µM (inactive). The GI50 [19] was > 100 µM (inactive), the GI50 [38] was 95.9 µM (inactive) and the GI50 [22] was > 100 µM (inactive). The GI50 [39] was 17 µM (inactive), the GI50 [24] was over 100 µM and the GI50 [25] was > 100 µM (inactive). The GI50 [26] was > 100 µM (inactive), the GI50 [28] was > 100 µM (inactive) and the GI50 [29] was > 100 µM (inactive). For the same molecule, the GI50 [32] was > 100 µM (inactive), the GI50 [34] was > 100 µM (inactive) and the GI50 [42] was 78.9 µM (inactive). The GI50 [57] was > 100 µM (inactive) and the GI50 [35] was > 100 µM (inactive).
